Laboratory results: EP0587374A2, “Sulfated sterol glycosides and their use against viral infections” (VIROSTAT (NA) NV, priority 1992, dated 1994)
Read-outs that look alike come from different tables or passages of the source.

Key:
[1] = test system: Peripheral blood lymphocytes; assay: In vitro cytotoxicity, Trypan Blue exclusion after 3 days of culture; conditions: 3 days, means of 4 counts
Description: Peripheral blood lymphocytes were prepared from normal blood. Cells were cultured for 3 days in complete medium [(RPMI, a commercially available so-called standard salt solution) + 10 % foetal calf serum (FCS) + […]] in the presence/absence of phytohemagglutinin (PHA). Duplicate wells were set up. Incubation was at 37°C and 5 % CO₂.
On the third day, cell viabilities were determined using the Trypan Blue exclusion test.
Those products which were water soluble, were made up at 8 mg/mℓ stocks in sterile distilled water and diluted 1:10 in RPMI medium and again diluted 1:10 directly in the wells containing the cells in complete medium. The final concentrations were thus 80 µg/mℓ. For the lower dilutions, the 8 mg/mℓ stock was diluted 1:2 or 1:4 or 1:8 in water before being diluted in the RPMI medium.
For those products which were DMSO-soluble, the stocks were made'up at 8 mg/mℓ in 100 % DMSO. This stock was diluted 1:10 in 100 % FCS and diluted 1:10 directly in the wells containing the cells in RPMI medium only. The final concentrations were thus 10 % FCS and 1 % DMSO. For the lower dilutions, the 8 mg/mℓ stock was diluted 1:2 or 1:4 or 1:8 with DMSO before the FCS dilution step.
This stock was diluted in water to yield a working stock of 2 mg/mℓ. The 2 mg/ml stock was diluted 1:20 or 1:10 or 1:5 or 1:2.5 in water and again 1:10 in the wells to give the 10, 20, 40 or 80 µg/mℓ final concentrations respectively.

[2] = test concentration 10 µg/mℓ, duration 6 days
[3] = test concentration 25 µg/mℓ, duration 6 days
[4] = test concentration 50 µg/mℓ, duration 6 days

Cc1cn([C@H]2C[C@H](N=[N+]=[N-])[C@@H](CO)O2)c(=O)[nH]c1=O [AZT, reference compound]
inhibition of P24 protein production (HIV-1; concentration 10 ng/mℓ, test of Table 3): 100%

CC[C@H](CC[C@@H](C)[C@H]1CC[C@H]2[C@@H]3CC=C4C[C@@H](O)CC[C@]4(C)[C@H]3CC[C@]12C)C(C)C [BSS, β-Sitosterol, reference compound]
% INHIBITION OF P24 PROTEIN PRODUCTION (HIV-1; [2]): 0%
% INHIBITION OF P24 PROTEIN PRODUCTION (HIV-1; test concentration 10 µg/mℓ, duration 6 days, listed as LL2): no significant inhibition
% Viability ([1]; Cells + PHA + 1.25 µg/mℓ): 89%
% Viability ([1]; Cells + PHA + 2.5 µg/mℓ): 81%
% Viability ([1]; Cells + PHA + 5 µg/mℓ): 92%
% Viability ([1]; Cells + PHA + 10 µg/mℓ): 82%

CC[C@H](CC[C@@H](C)[C@H]1CC[C@H]2[C@@H]3CC=C4C[C@@H](OS(=O)(=O)O)CC[C@]4(C)[C@H]3CC[C@]12C)C(C)C [BSS-SO₄⁻, β-Sitosteryl sulphate, reference compound]
% INHIBITION OF P24 PROTEIN PRODUCTION (HIV-1; [2]): 0%
% INHIBITION OF P24 PROTEIN PRODUCTION (HIV-1; test concentration 10 µg/mℓ, duration 6 days, listed as LL1): no significant inhibition

CC[C@H](CC[C@@H](C)[C@H]1CC[C@H]2[C@@H]3CC=C4C[C@@H](O[C@@H]5O[C@H](CO)[C@@H](O)[C@H](O)[C@H]5O)CC[C@]4(C)[C@H]3CC[C@]12C)C(C)C [BSSG, β-Sitosteryl β-D-glucoside, reference compound]
% INHIBITION OF P24 PROTEIN PRODUCTION (HIV-1; [2]): 0%
% INHIBITION OF P24 PROTEIN PRODUCTION (HIV-1; test concentration 10 µg/mℓ, duration 6 days, listed as LL4): no significant inhibition

CC(C)CCC[C@@H](C)[C@H]1CC[C@H]2[C@@H]3CC=C4C[C@@H](O)CC[C@]4(C)[C@H]3CC[C@]12C [CHO, Cholesterol, reference compound]
% INHIBITION OF P24 PROTEIN PRODUCTION (HIV-1; [2]): 3%
% INHIBITION OF P24 PROTEIN PRODUCTION (HIV-1; test concentration 10 µg/mℓ, duration 6 days, listed as LL5): no significant inhibition

CC(C)CCC[C@@H](C)[C@H]1CC[C@H]2[C@@H]3CC=C4C[C@@H](OS(=O)(=O)O)CC[C@]4(C)[C@H]3CC[C@]12C [CHO-SO₄⁻, Cholesteryl sulphate, reference compound]
% INHIBITION OF P24 PROTEIN PRODUCTION (HIV-1; [2]): 0%
% INHIBITION OF P24 PROTEIN PRODUCTION (HIV-1; test concentration 10 µg/mℓ, duration 6 days, listed as LL6): no significant inhibition

CC(C)CCC[C@@H](C)[C@H]1CC[C@H]2[C@@H]3CC=C4C[C@@H](O[C@@H]5O[C@H](COS(=O)(=O)[O-])[C@@H](OS(=O)(=O)[O-])[C@H](OS(=O)(=O)[O-])[C@H]5OS(=O)(=O)[O-])CC[C@]4(C)[C@H]3CC[C@]12C.[Na+].[Na+].[Na+].[Na+] [CHOG-(SO₄⁻)₄, Cholesteryl β-D-glucoside tetra-sulphate]
% INHIBITION OF P24 PROTEIN PRODUCTION (HIV-1; test concentration 12.5 µg/mℓ, duration 4 days): 19%
% INHIBITION OF P24 PROTEIN PRODUCTION (HIV-1; test concentration 25 µg/mℓ, duration 4 days): 18%
% INHIBITION OF P24 PROTEIN PRODUCTION (HIV-1; test concentration 50 µg/mℓ, duration 4 days): 49%
% INHIBITION OF P24 PROTEIN PRODUCTION (HIV-1; test concentration 100 µg/mℓ, duration 4 days): 86%

C[C@@H]1CC[C@@]2(OC1)O[C@H]1C[C@H]3[C@@H]4CC=C5C[C@@H](O[C@@H]6O[C@H](COS(=O)(=O)[O-])[C@@H](OS(=O)(=O)[O-])[C@H](OS(=O)(=O)[O-])[C@H]6OS(=O)(=O)[O-])CC[C@]5(C)[C@H]4CC[C@]3(C)[C@H]1[C@@H]2C.[Na+].[Na+].[Na+].[Na+] [DG-(SO₄⁻)₄, Diosgenyl β-D-glucoside tetra-sulphate]
anti-HIV-1 effect (in words) (HIV-1; in terms of P24 protein production, Tables 1-3): marked anti-HIV-1 effects
% INHIBITION OF P24 PROTEIN PRODUCTION (HIV-1; [3]): 60%
% INHIBITION OF P24 PROTEIN PRODUCTION (HIV-1; [4]): 100%

CCCCCCCCCCCCOS(=O)(=O)[O-].[Na+] [SODIUM n-DODECYL SULPHATE, reference compound]
% INHIBITION OF P24 PROTEIN PRODUCTION (HIV-1; [3]): 0%
% INHIBITION OF P24 PROTEIN PRODUCTION (HIV-1; [4]): 45%

CCCCCCCCO[C@@H]1O[C@H](COS(=O)(=O)O)[C@@H](OS(=O)(=O)O)[C@H](OS(=O)(=O)O)[C@H]1OS(=O)(=O)O [n-OCTYL GLUCOSIDE TETRA-SULPHATE, reference compound]
% INHIBITION OF P24 PROTEIN PRODUCTION (HIV-1; [3]): 0%
% INHIBITION OF P24 PROTEIN PRODUCTION (HIV-1; [4]): 0%
